Laboratory results: patent US9145351B2, “Azole derivatives, methods for producing the same, intermediate thereof, agro-horticultural agents” (KUREHA CORPORATION, priority 2009, dated 2015)
Where two headings read alike, the source gives them in different places.

Key:
Assay type in all cases: cell-based
Phaeosphaeria nodorum = assay: Plate medium fungicidal assay, wheat Septoria nodorum blotch P.n (Experimental Example 5); conditions: for inhibition at 5 µg/mL / inhibition at 50 µg/mL: Parastagonospora nodorum
Description: (§1) In this Experimental Example, the fungicidal effects of the inventive compounds on various phytopathogenic fungi for plants and hazardous microorganism for industrial materials were examined by the methods described below. Each inventive compound was dissolved in 2 ml of dimethyl sulfoxide. 0.6 ml of this solution was added to 60 nil of a PDA medium (potato dextrose agar medium) at about 60 degrees C., which was mixed thoroughly in a 100-ml conical flask, and poured into a dish, where it was solidified, thereby obtaining a plate medium containing the inventive compound at 50 mg/L and 5 mg/L. On the other hand, a subject microorganism previously cultured on a plate medium was cut out using a cork borer whose diameter was 4 mm, and inoculated to the test compound-containing plate medium described above. […] The growth degree of the microorganism on the test compound-containing plate medium thus observed was compared with the growth degree of the microorganism in the untreated group, and % mycelial growth inhibition was calculated by the following equation. R=100(dc−dt)/dc wherein R=% mycelial extension inhibition, dc=flora diameter in untreated plate, dt=flora diameter in treated plate. The results obtained as described above were evaluated as one of the 5 grades according to the following criteria. […] Wheat Septoria nodorum blotch (Phaeosphaeria nodorum) P.n

Fusarium graminearum = assay: microbe, parasite or virus in culture; conditions: for inhibition at 5 µg/mL / inhibition at 50 µg/mL: Fusarium graminearum; for Growth inhibition grade, F.g: plate medium
Ustilago nuda = assay: Plate medium fungicidal assay, barley loose smut U.n (Experimental Example 5); conditions: for inhibition at 5 µg/mL / inhibition at 50 µg/mL: Ustilago nuda
Description: as §1, with “Barley loose smut (Ustilago nuda) U.n” for “Wheat Septoria nodorum blotch (Phaeosphaeria nodorum) P.n”

Giberella fujikuroi = assay: Plate medium fungicidal assay, rice bakanae disease G.f (Experimental Example 5)
Description: as §1, with “Rice bakanae disease (Giberella fujikuroi) G.f” for “Wheat Septoria nodorum blotch (Phaeosphaeria nodorum) P.n”

Sclerotinia sclerotiorum = assay: Plate medium fungicidal assay, Sclerotinia rot S.s (Experimental Example 5); conditions: for inhibition at 5 µg/mL / inhibition at 50 µg/mL: Sclerotinia sclerotiorum
Description: as §1, with “Sclerotinia rot (Sclerotinia sclerotiorum) S.s” for “Wheat Septoria nodorum blotch (Phaeosphaeria nodorum) P.n”

Botritis cinerea = assay: Plate medium fungicidal assay, gray mold B.c (Experimental Example 5)
Description: as §1, with “Gray mold (Botritis cinerea) B.c” for “Wheat Septoria nodorum blotch (Phaeosphaeria nodorum) P.n”

[1] = plate medium, 5 mg/L, read-out: growth inhibition grade P.n
[2] = plate medium, 50 mg/L, read-out: growth inhibition grade P.n
[3] = read-out: growth inhibition grade F.g
[4] = plate medium, 5 mg/L, read-out: growth inhibition grade U.n
[5] = plate medium, 50 mg/L, read-out: growth inhibition grade U.n
[6] = plate medium, 5 mg/L, read-out: growth inhibition grade G.f
[7] = plate medium, 50 mg/L, read-out: growth inhibition grade G.f
[8] = plate medium, 5 mg/L, read-out: growth inhibition grade S.s
[9] = plate medium, 50 mg/L, read-out: growth inhibition grade S.s
[10] = plate medium, 5 mg/L, read-out: growth inhibition grade B.c
[11] = plate medium, 50 mg/L, read-out: growth inhibition grade B.c
[12] = plate medium containing compound at 5 mg/L, read-out: Growth inhibition grade, P.n
[13] = plate medium containing compound at 50 mg/L, read-out: Growth inhibition grade, P.n
[14] = read-out: Growth inhibition grade, F.g
[15] = plate medium containing compound at 5 mg/L, read-out: Growth inhibition grade, U.n
[16] = plate medium containing compound at 50 mg/L, read-out: Growth inhibition grade, U.n
[17] = plate medium containing compound at 5 mg/L, read-out: Growth inhibition grade, G.f
[18] = plate medium containing compound at 50 mg/L, read-out: Growth inhibition grade, G.f
[19] = plate medium containing compound at 5 mg/L, read-out: Growth inhibition grade, S.s
[20] = plate medium containing compound at 50 mg/L, read-out: Growth inhibition grade, S.s
[21] = plate medium containing compound at 5 mg/L, read-out: Growth inhibition grade, B.c
[22] = plate medium containing compound at 50 mg/L, read-out: Growth inhibition grade, B.c

Structure (SMILES)	inhibition at 5 µg/mL (Phaeosphaeria nodorum; [1]) [%]	inhibition at 50 µg/mL (Phaeosphaeria nodorum; [2]) [%]	inhibition at 5 µg/mL (Fusarium graminearum; [3]) [%]	inhibition at 50 µg/mL (Fusarium graminearum; [3]) [%]	inhibition at 5 µg/mL (Ustilago nuda; [4]) [%]	inhibition at 50 µg/mL (Ustilago nuda; [5]) [%]	inhibition at 5 µg/mL (Giberella fujikuroi; [6]) [%]	inhibition at 50 µg/mL (Giberella fujikuroi; [7]) [%]	inhibition at 5 µg/mL (Sclerotinia sclerotiorum; [8]) [%]	inhibition at 50 µg/mL (Sclerotinia sclerotiorum; [9]) [%]	inhibition at 5 µg/mL (Botritis cinerea; [10]) [%]	inhibition at 50 µg/mL (Botritis cinerea; [11]) [%]	Growth inhibition grade, P.n (Phaeosphaeria nodorum; plate medium, 5 mg/L)	Growth inhibition grade, P.n (Phaeosphaeria nodorum; plate medium, 50 mg/L)	Growth inhibition grade, F.g (Fusarium graminearum; 5 mg/L)	Growth inhibition grade, F.g (Fusarium graminearum; 50 mg/L)	Growth inhibition grade, U.n (Ustilago nuda; plate medium, 5 mg/L)	Growth inhibition grade, U.n (Ustilago nuda; plate medium, 50 mg/L)	Growth inhibition grade, G.f (Giberella fujikuroi; plate medium, 5 mg/L)	Growth inhibition grade, G.f (Giberella fujikuroi; plate medium, 50 mg/L)	also measured
C[C@]1(CBr)CC[C@@H](Cc2ccc(F)cc2)[C@]1(O)Cn1cncn1 (racemic) [Compound I-601, (1RS,2SR,5SR)-2-bromomethyl-5-(4-fluorobenzyl)-2-methyl-1-(1H-1,2,4-triazol-1-ylmethyl)cyclopentanol]	60 to 80	> 80	> 80	> 80	40 to 60	> 80	> 80	> 80	> 80	> 80	60 to 80	> 80	–	–	–	–	–	–	–	–	–
C[C@]1(CCl)CC[C@H](Cc2cccc(Cl)c2)[C@]1(O)Cn1cncn1 (relative stereo) [Compound I-374]	–	–	–	–	–	–	–	–	–	–	–	–	5 (% Mycerial growth inhibition of 80% or higher)	5 (% Mycerial growth inhibition of 80% or higher)	5 (% Mycerial growth inhibition of 80% or higher)	5 (% Mycerial growth inhibition of 80% or higher)	4 (% Mycerial growth inhibition of less than 80 to 60% or higher)	5 (% Mycerial growth inhibition of 80% or higher)	5 (% Mycerial growth inhibition of 80% or higher)	5 (% Mycerial growth inhibition of 80% or higher)	Growth inhibition grade, S.s (Sclerotinia sclerotiorum; plate medium, 5 mg/L): 5 (% Mycerial growth inhibition of 80% or higher); Growth inhibition grade, S.s (Sclerotinia sclerotiorum; plate medium, 50 mg/L): 5 (% Mycerial growth inhibition of 80% or higher); Growth inhibition grade, B.c (Botritis cinerea; plate medium, 5 mg/L): 5 (% Mycerial growth inhibition of 80% or higher); Growth inhibition grade, B.c (Botritis cinerea; plate medium, 50 mg/L): 5 (% Mycerial growth inhibition of 80% or higher)
C[C@@]1(CCl)CC[C@@H](Cc2cccc(Cl)c2)[C@]1(O)Cn1cncn1 (relative stereo) [Compound I-174]	–	–	–	–	–	–	–	–	–	–	–	–	5 (% Mycerial growth inhibition of 80% or higher)	5 (% Mycerial growth inhibition of 80% or higher)	5 (% Mycerial growth inhibition of 80% or higher)	5 (% Mycerial growth inhibition of 80% or higher)	4 (% Mycerial growth inhibition of less than 80 to 60% or higher)	5 (% Mycerial growth inhibition of 80% or higher)	5 (% Mycerial growth inhibition of 80% or higher)	5 (% Mycerial growth inhibition of 80% or higher)	Growth inhibition grade, S.s (Sclerotinia sclerotiorum; plate medium, 5 mg/L): 5 (% Mycerial growth inhibition of 80% or higher); Growth inhibition grade, S.s (Sclerotinia sclerotiorum; plate medium, 50 mg/L): 5 (% Mycerial growth inhibition of 80% or higher); Growth inhibition grade, B.c (Botritis cinerea; plate medium, 5 mg/L): 5 (% Mycerial growth inhibition of 80% or higher); Growth inhibition grade, B.c (Botritis cinerea; plate medium, 50 mg/L): 5 (% Mycerial growth inhibition of 80% or higher)
C[C@]1(CBr)CC[C@@H](Cc2ccc(Cl)cc2)[C@]1(O)Cn1cncn1 (racemic) [Compound I-25, (1RS,2SR,5SR)-2-bromomethyl-5-(4-chlorobenzyl)-2-methyl-1-(1H-1,2,4-triazol-1-ylmethyl)cyclopentanol]	–	–	–	–	–	–	–	–	–	–	–	–	–	–	–	–	–	–	–	–	inhibition at 5 µg/mL (Phaeosphaeria nodorum; [12]): 60 to 80%; inhibition at 50 µg/mL (Phaeosphaeria nodorum; [13]): > 80%; inhibition at 5 µg/mL (Fusarium graminearum; [14]): > 80%; inhibition at 50 µg/mL (Fusarium graminearum; [14]): > 80%; inhibition at 5 µg/mL (Ustilago nuda; [15]): 40 to 60%; inhibition at 50 µg/mL (Ustilago nuda; [16]): > 80%; inhibition at 5 µg/mL (Giberella fujikuroi; [17]): > 80%; inhibition at 50 µg/mL (Giberella fujikuroi; [18]): > 80%; inhibition at 5 µg/mL (Sclerotinia sclerotiorum; [19]): > 80%; inhibition at 50 µg/mL (Sclerotinia sclerotiorum; [20]): > 80%; inhibition at 5 µg/mL (Botritis cinerea; [21]): > 80%; inhibition at 50 µg/mL (Botritis cinerea; [22]): > 80%
CC(Cl)=C[C@@]1(C)CC[C@@H](Cc2ccc(Cl)cc2)[C@]1(O)Cn1cncn1 (racemic) [Compound I-15, (1RS,2RS,5SR)-5-(4-chlorobenzyl)-2-(2-chloropropenyl)-2-methyl-1-(1H-1,2,4-triazol-1-ylmethyl)cyclopentanol]	–	–	–	–	–	–	–	–	–	–	–	–	–	–	–	–	–	–	–	–	inhibition at 5 µg/mL (Phaeosphaeria nodorum; [12]): > 80%; inhibition at 50 µg/mL (Phaeosphaeria nodorum; [13]): > 80%; inhibition at 5 µg/mL (Fusarium graminearum; [14]): > 80%; inhibition at 50 µg/mL (Fusarium graminearum; [14]): > 80%; inhibition at 5 µg/mL (Ustilago nuda; [15]): > 80%; inhibition at 50 µg/mL (Ustilago nuda; [16]): > 80%; inhibition at 5 µg/mL (Giberella fujikuroi; [17]): > 80%; inhibition at 50 µg/mL (Giberella fujikuroi; [18]): > 80%; inhibition at 5 µg/mL (Sclerotinia sclerotiorum; [19]): > 80%; inhibition at 50 µg/mL (Sclerotinia sclerotiorum; [20]): > 80%; inhibition at 5 µg/mL (Botritis cinerea; [21]): > 80%; inhibition at 50 µg/mL (Botritis cinerea; [22]): > 80%
C[C@]1(CCl)CC[C@H](Cc2ccc(Cl)cc2)[C@]1(O)Cn1cncn1 (racemic) [Compound I-301, (1RS,2SR,5RS)-5-(4-chlorobenzyl)-2-chloromethyl-2-methyl-1-[1,2,4]triazol-1-ylmethylcyclopentanol]	> 80	> 80	> 80	> 80	> 80	> 80	> 80	> 80	> 80	> 80	> 80	> 80	–	–	–	–	–	–	–	–	–
